Here are results for 37 compounds from ChEMBL document CHEMBL1150076, “Effects of various isoquinoline alkaloids on in vitro 3H-dopamine uptake by rat striatal synaptosomes” (J Nat Prod, 1995).

The target in this assay is Sodium-dependent dopamine transporter (Rattus norvegicus, UniProt P23977). The class given is subcellular, Wistar, Brain, Synaptosomes.
Sequence of Sodium-dependent dopamine transporter (P23977 whole entry): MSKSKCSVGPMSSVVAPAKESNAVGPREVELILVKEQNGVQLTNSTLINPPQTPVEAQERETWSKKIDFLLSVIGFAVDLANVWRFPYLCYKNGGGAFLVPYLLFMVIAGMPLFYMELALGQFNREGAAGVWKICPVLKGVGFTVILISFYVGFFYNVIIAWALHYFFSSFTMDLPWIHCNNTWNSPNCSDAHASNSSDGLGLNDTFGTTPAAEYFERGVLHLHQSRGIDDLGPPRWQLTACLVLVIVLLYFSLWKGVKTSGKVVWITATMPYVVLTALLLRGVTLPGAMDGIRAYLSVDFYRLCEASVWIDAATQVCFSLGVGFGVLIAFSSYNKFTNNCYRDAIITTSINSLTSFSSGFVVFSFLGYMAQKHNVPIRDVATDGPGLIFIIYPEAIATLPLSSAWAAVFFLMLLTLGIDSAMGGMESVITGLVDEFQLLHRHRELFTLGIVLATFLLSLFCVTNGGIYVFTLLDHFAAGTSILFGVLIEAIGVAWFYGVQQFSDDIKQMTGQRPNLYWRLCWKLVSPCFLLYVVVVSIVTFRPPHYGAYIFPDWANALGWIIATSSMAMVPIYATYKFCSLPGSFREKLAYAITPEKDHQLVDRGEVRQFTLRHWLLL
With `COc1ccc2c(c1O)Oc1c(O)ccc3c1[C@H](C2)N(C)CC3` [CLAVICULINE], the IC50 – broadly, the midpoint of a concentration-inhibition curve – was over 100 µM.

In turn, `COc1ccc2cc1Oc1ccc(cc1)C[C@H]1c3c(cc(OC)c(OC)c3Oc3cc4c(cc3OC)CCN(C)[C@@H]4C2)CCN1C` [OBABERINE] returned an IC50 of 3.9 µM.

`COc1ccc2c(c1)c(C)c1c3c(cc4c(c32)OCO4)CCN1C` came in with an IC50 of 46.6 µM.

`COc1cc2c(cc1O)C[C@@H]1NCCc3cc(O)c(OC)c-2c31` [NORBOLDINE] had an IC50 of 16.5 µM.

For the compound `COc1cc2c(cc1OC)[C@@H](Cc1ccc(Oc3cc(C[C@H]4c5cc(OC)c(OC)cc5CCN4C)ccc3OC)cc1)N(C)CC2` [DIMETHYLGRISABINE], the IC50 amounted to 1.1 µM.

In the case of `COc1cc2c(cc1O)Oc1c(O)ccc3c1[C@H](C2)N(C)CC3` [CELTISINE], the IC50 was over 100 µM.

Turning to `Cc1c2c3c(cc4c(c3c3ccc(O)cc13)OCO4)CCN2C` [BELEMINE], half-maximal inhibition (IC50) required 61.4 µM.

For the compound `COc1cc2c(cc1OC)C(=O)c1nccc3ccc(OC)c(c13)O2` [OXOCULARINE], the 50% inhibitory concentration (IC50) is over 100 µM.

The compound `COc1c(O)c2c3c(nccc3c1OC)C(C)(C)c1cc(O)ccc1-2` [MELOSMINE] came in with an IC50 of 23.6 µM.

Compound `COc1ccc2cc1Oc1ccc(cc1)C[C@H]1c3c(cc(OC)c(O)c3Oc3cc4c(cc3OC)CCN(C)[C@@H]4C2)CCN1C` [HOMOAROMOLINE] returned an IC50 of 10.9 µM.

In turn, `COc1cc2c(cc1OC)[C@H](Cc1ccc(O)cc1)NCC2` [NORARMEPAVINE] had an IC50 of 37 µM.

Regarding `COc1ccc2c(c1OC)Oc1c(O)ccc3ccnc(c13)C2` [OXOSARCOPHYLLINE], the IC50 was over 100 µM.

`COc1ccc(C[C@H]2c3c(cc(OC)c4c3Oc3cc5c(cc3O4)CCN(C)C5=O)CCN2C)cc1-c1cc(C=O)ccc1O` [SECOLUCIDINE]: the IC50 was over 100 µM.

As to `COc1cc2c(cc1OC)Oc1c(O)ccc(CCN(C)C)c1C=C2` [SECOCULARIDINE], inhibition was half-maximal at 13.4 µM (IC50).

On to `COc1cc2c(cc1Oc1c(O)c(OC)cc3c1[C@H](Cc1ccc(OC)c(-c4cc(C=O)ccc4O)c1)N(C)CC3)C(=O)N(C)CC2` [SECANTIOQUINE], for which the IC50 was over 100 µM.

As for `COc1cc2c3c(c(-c4c5c6c(cc7c(c6c6ccccc46)OCO7)CCN5)c4ccccc4c3c1OC)NCC2` [HETEROPSINE], the IC50 was over 100 µM.

`COc1cc2c(cc1OC)[C@@H](Cc1ccc(Oc3cc(C[C@@H]4c5cc(OC)c(OC)cc5CCN4C)ccc3OC)cc1)N(C)CC2` came in with an IC50 of 5.8 µM. That is a single-digit micromolar value.

`COc1ccc2cc1Oc1ccc(cc1)C[C@@H]1c3cc(c(OC)cc3CCN1C)Oc1c(OC)c(OC)cc3c1[C@H](C2)N(C)CC3` [ISOTETRANDRINE] displayed an IC50 of 4.2 µM. This IC50 and that of the compound before are within 1.5-fold of each other.

Take `COc1cc(C[C@H]2c3c(ccc(OC)c3O)CCN2C)ccc1O` [ISOCRASSIFOLINE]: the IC50 was 36.2 µM.

`COc1cc2c(cc1O)[C@H](Cc1ccc(O)cc1)NCC2` [L-COCLAURINE] showed an IC50 of 14.1 µM.

`COc1ccc2c(c1O)Oc1c(OC)ccc3c1[C@H](C2)N(C)CC3` [SARCOCAPNIDINE] showed an IC50 of 85.5 µM.

Consider `Oc1ccc2c(c1)C[C@H]1NCCc3cc4c(c-2c31)OCO4` [ANOLOBINE], for which the IC50 turned out to be 8.1 µM.

In the case of `COc1cc2c(cc1OC)Oc1c(O)ccc3c1[C@H](C2)N(C)CC3` [CULARIDINE], the IC50 came to 41.2 µM. Compared with the last compound, the IC50 is about 5.1-fold higher.

The compound `COc1cc2c3c(c1OC)-c1c(ccc(O)c1O)C[C@H]3N(C)CC2` [SAUVEOLINE] displayed an IC50 of over 100 µM.

As to `COc1c(O)c2c3c(c1OC)CCN[C@@H]3Cc1ccccc1-2` [ISOPILINE], the IC50 stood at 2.5 µM.

Consider `COc1cc2c(cc1OC)Oc1c(OC)ccc(CCN(C)C)c1C=C2` [SECOCULARINE], for which the 50% inhibitory concentration (IC50) worked out at 28.2 µM.

With `c1ccc2c(c1)C[C@H]1NCCc3cc4c(c-2c31)OCO4` [ANONAINE], the IC50 is 0.8 µM.

`COc1cc2ccnc3c2c(c1OC)-c1ccccc1C3=O` [LYSICAMINE] registered an IC50 of over 100 µM.

With `COc1c(O)c2c3c(c1OC)CCN(C)[C@@H]3Cc1ccccc1-2`, inhibition was half-maximal at 46.4 µM (IC50). This lies in the double-digit micromolar range.

For the compound `COc1cc2c3cc1Oc1c(O)c(OC)cc4c1[C@H](Cc1ccc(OC)c(c1)-c1cc(ccc1O)C[C@H]3N(C)CC2)N(C)CC4` [ANTIOQUINE], the IC50 was found to be 3.4 µM.

In the case of `COc1cccc2c1-c1c3c(cc4c1[C@@H](C2)N(C)CC4)OCO3`, half-maximal inhibition (IC50) was put at 31.8 µM.

With `COc1cc2c3cc1Oc1c(OC)c(OC)cc4c1[C@@H](C(=O)c1ccc(OC)c(c1)-c1cc(ccc1OC)C[C@H]3N(C)CC2)N(C)CC4` [DIMETHYLPSEUDOXANDRINE], half-maximal inhibition (IC50) was put at 20.1 µM.

In turn, `O=C1c2ccccc2-c2c3c(cc4ccnc1c24)OCO3` [LIRIODENINE] registered an IC50 of 31.2 µM. Against the preceding compound, the IC50 is about 1.6-fold higher.

`COc1cc2c(cc1OC)[C@@H](Cc1ccc(OC)c(Oc3ccc(C[C@H]4NCCc5cc(OC)c(OC)cc54)cc3)c1)N(C)CC2` [PAMPULHAMINE] had an IC50 of 84.2 µM. This IC50 is about 2.7-fold higher than that of the compound before.

`O=C(O)CCCCCCNC1c2ccccc2CCc2ccccc21` [AMINEPTINE]: it took 1 µM to reach half-maximal inhibition (IC50).

`COc1c2c3c(c4c1OCO4)-c1ccccc1C[C@H]3NCC2` [NORSTEPHALAGINE] displayed an IC50 of 1.4 µM. The IC50 values of the last two compounds are within 1.5-fold of each other.

With `COc1cc2c(cc1O)C[C@H]1c3c(ccc(O)c3O2)CCN1C` [BREOGANINE], the IC50 was 56.5 µM.
